This is an account of results in patent US20100173832A1, “ANTICANCEROUS POLYMERIC AGENTS” (TECHNION RESEARCH & DEVELOPMENT FOUNDATION LTD., priority 2007, published 2010).

Data set [1] can be described thus: XTT cell viability assay, non-cancerous cardiac fibroblasts (CF). The data set is classed as cell-based, rat. The source says:
Primary non-cancerous rat cardiac fibroblasts (CF);
(§1) As a routine cancer cell killing assay for assessment of antitumor activity, 2,3-bis(2-methoxy-4-nitro-5-sulfophenyl)-2H-tetrazolium-5-carboxanilide inner salt (XTT) reduction assay was used, utilizing a commercial kit such as, for example, Cell Proliferation XTT Kit, Cat. No. 20-300-1000, Biological Industries Ltd., Kibbutz Beit Haemek, Israel. XTT is a tetrazolium salt which is cleaved to formazan colored compounds by the mitochondrial dehydrogenase enzymes indicating proper mitochondrial activity in intact cells.
(§2) Thereafter, a series of increasing concentrations of the polymers were added. After another 24 hours of incubation, XTT reaction solution was added (50 μl of XTT per 100 μl of cell culture medium). The optical density of the cells was measured at 450 nm by ELISA plate reader after 2-4 hours XTT incubation. Cell viability was determined relative to a control having no polymer added thereto.
“Rat primary cardiac fibroblast CF” represents the lethal concentration in μM as measured against CF cell line, measured as described hereinabove in the cell proliferation XTT assay (column 8 in Table 3);
(In general: Tetrazolium dyes change colour on reduction, which living cells bring about.)

The next data set relates to TRAMP-C2 cell line. Format: cell-based.
From the text: Transgenic adenocarcinoma mouse prostate cells (TRAMP-C2);
as §1, §2
“Mouse prostate cancer TRAMP-C2” represents the lethal concentration in μM as measured against TRAMP-C2 cell line, measured as described hereinabove in the cell proliferation XTT assay (column 5 in Table 3);

The test system of another data set is N-417 cell line. The data set can be described thus: XTT cell viability assay, N-417 cells. The data set is classed as cell-based.
From the text: Variant small cell lung cancer cells (N-417, SCLC);
as §1, §2
“Human breast cancer MCF-7” represents the lethal concentration in μM as measured against MCF-7 cell line, measured as described hereinabove in the cell proliferation XTT assay (column 6 in Table 3); “Human small-cell lung carcinoma N-417” represents the lethal concentration in μM as measured against N-417 cell line, measured as described hereinabove in the cell proliferation XTT assay (column 7 in Table 3);

The next data set concerns MCF-7 cell line. The data set is classed as cell-based.
[2] abbreviates: rat, primary non-cancerous cardiac fibroblasts (CF), 24 hours incubation, XTT, non-cancerous cells, read-out: Cancer LC50 Rat primary cardiac fibroblast CF.
[3] abbreviates: 24 hours incubation, XTT, read-out: Cancer LC50 Mouse prostate cancer TRAMP-C2.
[4] abbreviates: 24 hours incubation, XTT, read-out: Cancer LC50 Human small-cell lung carcinoma N-417.
[5] abbreviates: 24 hours incubation, XTT, read-out: Cancer LC50 Human breast cancer MCF-7.
Where [6] appears, read: rat, Cancer LC50 Rat primary cardiac fibroblast CF.
Where [7] appears, read: primary cardiac fibroblasts (CF), primary non-cancerous rat cardiac fibroblasts, XTT assay, read-out: CF lethal concentration.

Molecules are shown by their SMILES. Like-named read-outs stand apart in the source and are kept apart here. Non-standard residues stand in square brackets, D forms with d. Residues, ends and D or L forms follow the SMILES beside them. *: point of attachment. Lauroyl = CCCCCCCCCCCC(=O)*; 12Ado = NCCCCCCCCCCCC(=O)O; Octanoyl = CCCCCCCC(=O)*

Protocol for MCF-7 cell line: Human breast adenocarcinoma cells (MCF-7);
Thereafter, a series of increasing concentrations of the polymers were added. […] The optical density of the cells was measured at 450 nm by ELISA plate reader after 2-4 hours XTT incubation. Cell viability was determined relative to a control having no polymer added thereto.

Turning to `CCCCCCCC(=O)N[C@@H](CCCCN)C(=O)NCCCCCCCCCCCC(=O)N[C@@H](CCCCN)C(=O)N[C@@H](CCCCN)C(=O)NCCCCCCCCCCCC(=O)N[C@@H](CCCCN)C(N)=O` [C8(KNC12K)2NH2] (Octanoyl-K[12Ado]KK[12Ado]K-NH2), in data set [1] (setting [2]), the CC50 at 24 h was > 16 µM. Further, the CC50 in the data set on TRAMP-C2 cell line (setting [3]) was > 8 µM; in the data set on N-417 cell line (setting [4]), > 16 µM; with MCF-7 cell line (setting [5]) it was > 16 µM.

As for `CCCCCCCC(=O)N[C@@H](CCCCN)C(=O)N[C@@H](CCCCN)C(=O)NCCCCCCCCCCCC(=O)N[C@@H](CCCCN)C(=O)N[C@@H](CCCCN)C(=O)NCCCCCCCCCCCC(=O)N[C@@H](CCCCN)C(N)=O` [C8K(KNC12K)2NH2] (Octanoyl-KK[12Ado]KK[12Ado]K-NH2), in data set [1] (setting [2]), the CC50 at 24 h is > 50 µM. The CC50 was > 16 µM in the data set with TRAMP-C2 cell line (setting [3]), > 16 µM in the data set on N-417 cell line (setting [4]) and 20 ± 1 µM in the data set on MCF-7 cell line (setting [5]).

Consider `CCCCCCCC(=O)N[C@@H](CCCCN)C(=O)N[C@@H](CCCCN)C(=O)NCCCCCCCCCCCC(=O)N[C@@H](CCCCN)C(N)=O` [C8KKNC12KNH2] (HELM PEPTIDE1{[CCCCCCCC(=O)[*:2]].K.K.[O=C(CCCCCCCCCCCN[*:1])[*:2]].K.[am]}$$$$V2.0), for which, in data set [1] (setting [6]), the CC50 at 24 h is > 16 µM. The CC50 in the data set with TRAMP-C2 cell line (mouse, 24 h) is > 16 µM; in the data set on N-417 cell line (human, 24 h), > 16 µM; in the data set on MCF-7 cell line (human, 24 h), > 16 µM.

Regarding `CCCCCCCCCCCC(=O)N[C@@H](CCCCN)C(=O)N[C@@H](CCCCN)C(=O)NCCCCCCCCCCCC(=O)N[C@@H](CCCCN)C(=O)N[C@@H](CCCCN)C(=O)NCCCCCCCCCCCC(=O)N[C@@H](CCCCN)C(N)=O` [C12K(KNC12K)2NH2] (Lauroyl-KK[12Ado]KK[12Ado]K-NH2), in data set [1] (setting [2]), the CC50 at 24 h was 38 ± 1 µM. Further, the CC50 in the data set on TRAMP-C2 cell line (setting [3]) is > 16 µM; in the data set on N-417 cell line (setting [4]), 11 ± 1 µM; in the data set on MCF-7 cell line (setting [5]) it was 12 ± 4 µM.

Consider `CCCCCCCCCCCC(=O)N[C@@H](CCCCN)C(=O)N[C@@H](CCCCN)C(=O)NCCCCCCCCCCCC(=O)N[C@@H](CCCCN)C(N)=O` [C12KKNC12KNH2] (HELM PEPTIDE1{[CCCCCCCCCCCC(=O)[*:2]].K.K.[O=C(CCCCCCCCCCCN[*:1])[*:2]].K.[am]}$$$$V2.0), for which, in data set [1] (setting [6]), the CC50 at 24 h is > 16 µM. Moreover, the CC50 in the data set with TRAMP-C2 cell line (mouse, 24 h) is > 16 µM; in the data set on N-417 cell line (human, 24 h) it was > 50 µM; in the data set on MCF-7 cell line (human, 24 h), > 16 µM.

As for `NCCCC[C@H](NC(=O)CCCCCCCCCCCNC(=O)[C@H](CCCCN)NC(=O)[C@H](CCCCN)NC(=O)CCCCCCCCCCCNC(=O)[C@H](CCCCN)NC(=O)[C@@H](N)CCCCN)C(N)=O` [K(KNC12K)2NH2] (HELM PEPTIDE1{K.K.[O=C(CCCCCCCCCCCN[*:1])[*:2]].K.K.[O=C(CCCCCCCCCCCN[*:1])[*:2]].K.[am]}$$$$V2.0), the CC50 at 24 h in data set [1] (setting [2]) was > 16 µM. In addition, the CC50 in the data set with TRAMP-C2 cell line (setting [3]), in the data set with N-417 cell line (setting [4]) and in the data set on MCF-7 cell line (setting [5]) was > 16 µM in each case.

As to `NCCCC[C@H](NC(=O)CCCCCCCCCCCNC(=O)[C@H](CCCCN)NC(=O)CCCCCCCCCCCNC(=O)[C@H](CCCCN)NC(=O)CCCCCCCCCCCNC(=O)[C@H](CCCCN)NC(=O)CCCCCCCCCCCNC(=O)[C@H](CCCCN)NC(=O)CCCCCCCCCCCNC(=O)[C@H](CCCCN)NC(=O)CCCCCCCCCCCNC(=O)[C@@H](N)CCCCN)C(N)=O` [K(NC12K)6NH2], the CC50 at 24 h in data set [1] (setting [7]) is > 16 µM.

For `NCCCC[C@H](NC(=O)CCCCCCCCCCCNC(=O)[C@H](CCCCN)NC(=O)CCCCCCCCCCCNC(=O)[C@H](CCCCN)NC(=O)CCCCCCCCCCCNC(=O)[C@H](CCCCN)NC(=O)CCCCCCCCCCCNC(=O)[C@H](CCCCN)NC(=O)CCCCCCCCCCCNC(=O)[C@H](CCCCN)NC(=O)CCCCCCCCCCCNC(=O)[C@H](CCCCN)NC(=O)CCCCCCCCCCCNC(=O)[C@@H](N)CCCCN)C(N)=O` [K(NC12K)7NH2], the CC50 at 24 h in data set [1] (setting [7]) is > 16 µM.

Take `NCCCC[C@H](NC(=O)CCCCCCCCCCCNC(=O)[C@@H](N)CCCCN)C(N)=O` [KNC12KNH2]: the CC50 at 24 h in data set [1] (setting [7]) was > 16 µM.

`NCCCC[C@H](NC(=O)CCCCCCCCCCCNC(=O)[C@@H](N)CCCCN)C(=O)O` [KNC12K]: in data set [1] (setting [7]), the CC50 at 24 h is > 16 µM.
